This is an account of results in US20180049996A1, “THERAPEUTIC AGENT FOR CHRONIC RESPIRATORY DISEASE AND COMPOSITION FOR INHIBITING CARDIAC FIBROSIS” (NIPPON HYPOX LABORATORIES INCORPORATED, priority 2015, published 2018).

For the assay, the system named is Pulmonary Fibrosis Induced by Bleomycin. As to the kind of experiment: Bronchoalveolar lavage (BAL) examination, cell numbers, pulmonary fibrosis induced by bleomycin. The assay is classed as in vivo, male SD rats. On the procedure: Bleomycin is used to produce disease-model animals of interstitial pneumonia. The bleomycin and 2,3,5-trimethylhydroquinone-1-hexyl ether (HTHQ) as the hydroquinone derivative represented by the general formula (1) described above of the present invention were simultaneously administered to male SD rats of 10 week old after birth to examine the effect of the action. The test groups consisted of the control group to which sterile saline was administered; test group 1 to which bleomycin (7.5 mg/kg body weight) alone was administered; test group 2 to which bleomycin (7.5 mg/kg body weight) and HTHQ (50 mg/kg body weight/day) were administered in combination; and test group 3 to which bleomycin (7.5 mg/kg body weight) and HTHQ (200 mg/kg body weight/day) were administered in combination.
In test groups 1 to 3, bleomycin was orally administered in a single dose. In test groups 2 and 3, 2,3,5-trimethylhydroquinone-1-hexyl ether (HTHQ) was daily orally administered for 10 or 20 days starting from 24 h after the administration of bleomycin. In test group 1, olive oil, which was used as a solvent of HTHQ, was daily orally administered at 10 mL/kg/day starting from 24 h after the administration of bleomycin. The number of animals in each group was 16. 8 animals of each group were sacrificed on days 10 and 20 after the administration of bleomycin and measurement of body weight, lung autopsy, histopathologic examination of lungs and bronchoalveolar lavage examination were conducted.
Bronchoalveolar lavage (BAL) examination was conducted on the rats in the control group and the test groups. When interstitial pneumonia developed, the infiltration of inflammatory cells occurs and thus the total cell number in BAL fluid increases. The total cell numbers on day 10 after the administration of bleomycin were as follows: 2×10^5 cells in the control group, 9×10^5 cells in test group 1 (the bleomycin-single administration group), 6.5×10^5 cells in test group 2 (the low-dose HTHQ-administered group, 50 mg/kg body weight), and 10.5×10^5 cells in test group 3 (the high-dose HTHQ-administered group, 200 mg/kg body weight), and thus the effect of HTHQ administration was not found on day 10 after the administration of bleomycin.
When interstitial pneumonia developed, the infiltration of alveolar macrophages to interstitial tissue occurs and thus the alveolar macrophage number in BAL fluid increases. The alveolar macrophage numbers on day 10 after the administration of bleomycin were as follows: 1.45×10^5 cells in the control group, 4.5×10^5 cells in test group 1 (the bleomycin-single administration group), 1.99×10^5 cells in test group 2 (the low-dose HTHQ-administered group), and 3.24×10^5 cells in test group 3 (the high-dose HTHQ-administered group), and thus the effect of HTHQ administration was not found on day 10 after the administration of bleomycin. However, on day 20 after the administration, while the alveolar macrophage number of the bleomycin-single administration group was 5.5×10^5 cells, the alveolar macrophage number of the low-dose HTHQ-administered group was 3×10^5 cells and the alveolar macrophage number of the high-dose HTHQ-administered group was decreased to 2×10^5 cells.
When interstitial pneumonia developed, the infiltration of inflammatory cells of neutrophils to interstitial tissue occurs and thus the neutrophil number in BAL fluid increases. The neutrophil numbers on day 10 after the administration of bleomycin were as follows: 1.04×10^4 cells in the control group, 2.28×10^5 cells in test group 1 (the bleomycin-single administration group), 1.44×10^5 cells in test group 2 (the low-dose HTHQ-administered group), and 5.83×10^5 cells in test group 3 (the high-dose HTHQ-administered group), and thus the effect of HTHQ was not found on day 10 after the administration of bleomycin. […]

Where [1] appears, read: Test group 2: bleomycin + HTHQ 50 mg/kg/day oral, day 10.
Where [2] appears, read: Test group 3: bleomycin + HTHQ 200 mg/kg/day oral, day 10.
The mark [3] stands for this setting: bleomycin + HTHQ 50 mg/kg/day oral (low-dose), day 20.
The mark [4] stands for this setting: bleomycin + HTHQ 200 mg/kg/day oral (high-dose), day 20.

`CCCCCCOc1cc(C)c(O)c(C)c1C` [HTHQ, 2,3,5-trimethylhydroquinone-1-hexyl ether]: under setting [1], the “alveolar macrophage number in BAL fluid” value was 1.99×10^5 cells, the “lymphocyte number in BAL fluid” value is given as 3.07×10^5 cells, the “neutrophil number in BAL fluid” value is given as 1.44×10^5 cells and the “total cell number in BAL fluid” value is reported as 6.5×10^5 cells. Besides, under setting [2], the “alveolar macrophage number in BAL fluid” value is 3.24×10^5 cells, the “lymphocyte number in BAL fluid” value is 1.43×10^5 cells, the “neutrophil number in BAL fluid” value was 5.83×10^5 cells and the “total cell number in BAL fluid” value is listed as 10.5×10^5 cells. Besides, under setting [3], the “alveolar macrophage number in BAL fluid” value is listed as 3×10^5 cells, the “lymphocyte number in BAL fluid” value is listed as 0.53×10^5 cells, the “neutrophil number in BAL fluid” value was 4.34×10^5 cells and the “total cell number in BAL fluid” value is recorded as 7.9×10^5 cells. Moreover, under setting [4], the “alveolar macrophage number in BAL fluid” value is 2×10^5 cells, the “lymphocyte number in BAL fluid” value is listed as 0.3×10^5 cells, the “neutrophil number in BAL fluid” value is 1.49×10^5 cells and the “total cell number in BAL fluid” value is on record as 3.8×10^5 cells.
